In ChEMBL document CHEMBL1124195, “Substituted benzamides with conformationally restricted side chains. 2. Indolizidine derivatives as central dopamine receptor antagonists” (J Med Chem, 1988):
One block for each compound: values may come before it. Calls of active or inactive are those of the source. The rule behind the calls is not given here.

Experiments:
Mus musculus = test: Evaluated for the antagonism of apomorphine-induced climbing behavior in mice (sc); type: functional
Rattus norvegicus [1] = test: Evaluated for lowest active dose (LAD) for (gastric prokinetic activity) stimulation of intragastric pressure (IGP) in rats (sc); Inactive (0.5-10 mg/kg); type: functional, organism-based
Rattus norvegicus [2] = test: Evaluated for lowest active dose (LAD) for (gastric prokinetic activity) stimulation of intragastric pressure (IGP) in rats (sc); type: functional
D(2) dopamine receptor = D(2) dopamine receptor (Rattus norvegicus, UniProt P61169); test: Binding affinity against Dopamine receptor D2 at 10e-3 M concentration using [3H]spiperone in rat striatal tissue
Chain of D(2) dopamine receptor (P61169 whole entry): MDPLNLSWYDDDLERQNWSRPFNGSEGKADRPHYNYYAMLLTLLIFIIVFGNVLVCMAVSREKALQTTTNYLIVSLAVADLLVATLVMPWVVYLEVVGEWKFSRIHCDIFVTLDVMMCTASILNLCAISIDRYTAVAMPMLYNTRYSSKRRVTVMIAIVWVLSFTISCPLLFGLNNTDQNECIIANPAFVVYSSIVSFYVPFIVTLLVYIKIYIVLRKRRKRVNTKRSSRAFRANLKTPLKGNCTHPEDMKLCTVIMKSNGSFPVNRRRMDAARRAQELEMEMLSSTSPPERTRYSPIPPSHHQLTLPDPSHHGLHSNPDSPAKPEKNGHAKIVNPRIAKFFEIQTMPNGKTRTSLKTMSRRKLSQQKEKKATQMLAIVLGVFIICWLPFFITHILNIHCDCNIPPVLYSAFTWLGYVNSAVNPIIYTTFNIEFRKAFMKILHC

D(1A) dopamine receptor = D(1A) dopamine receptor (Rattus norvegicus, UniProt P18901); test: Binding affinity against Dopamine receptor D1 at 10e-3 M concentration using cis-[3H]flupenthixol in rat striatal tissue
Chain of D(1A) dopamine receptor (P18901 whole entry): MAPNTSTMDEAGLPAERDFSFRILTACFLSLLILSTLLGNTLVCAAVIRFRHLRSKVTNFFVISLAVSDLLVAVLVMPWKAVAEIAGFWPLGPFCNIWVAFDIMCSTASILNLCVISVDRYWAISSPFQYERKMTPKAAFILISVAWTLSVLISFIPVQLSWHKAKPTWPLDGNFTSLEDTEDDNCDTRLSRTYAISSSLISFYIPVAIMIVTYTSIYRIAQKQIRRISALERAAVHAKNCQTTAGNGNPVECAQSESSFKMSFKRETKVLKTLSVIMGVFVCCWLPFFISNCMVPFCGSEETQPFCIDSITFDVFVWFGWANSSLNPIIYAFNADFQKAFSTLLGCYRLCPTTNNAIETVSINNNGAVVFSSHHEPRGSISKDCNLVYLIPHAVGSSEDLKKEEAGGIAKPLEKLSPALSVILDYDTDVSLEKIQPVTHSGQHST

Rattus norvegicus [3] = test: Effective concentration for inhibition of amphetamine-induced locomotor activity in rats 4 hr after dosing administered intraperitoneally; type: functional; details: ip
Rattus norvegicus [4] = test: Compound was tested for inducing catalepsy 4 hr after dose administered intraperitoneally; type: functional; details: ip

SMILES: COc1cc(N)c(Cl)cc1C(=O)NC1CCN2C[C@@H](c3ccccc3)CC2C1 (some centres undefined)
ED50 (Mus musculus): 0.024 mg/kg
LAD (Rattus norvegicus [1]): inactive

SMILES: COc1cc(N)c(Cl)cc1C(=O)NC1CCN2CC(c3ccccc3)(c3ccccc3)CC2C1 (centres undefined)
ED50 (Mus musculus): > 1 mg/kg
LAD (Rattus norvegicus [1]): inactive

SMILES: COc1cc(N)c(Cl)cc1C(=O)NC1CCN2C[C@@H](c3ccccc3)CCC2C1 (some centres undefined)
ED50 (Mus musculus): > 1 mg/kg
LAD (Rattus norvegicus [1]): inactive

SMILES: COc1cc(N)c(Cl)cc1C(=O)NC1CC(C)N2CC(c3ccccc3)CC2C1 (centres undefined)
ED50 (Mus musculus): 0.4 mg/kg
LAD (Rattus norvegicus [1]): inactive

SMILES: COc1cc(N)c(Cl)cc1C(=O)NC1CCN2C[C@H](c3ccccc3)CCC2C1 (some centres undefined)
ED50 (Mus musculus): > 1 mg/kg
LAD (Rattus norvegicus [1]): inactive

SMILES: COc1cc(N)c(Cl)cc1C(=O)NC1CCN2CC(c3ccccc3F)CC2C1 (centres undefined)
ED50 (Mus musculus): 0.03 mg/kg

SMILES: COc1cc(N)c(Cl)cc1C(=O)NC1CCN2C[C@H](c3ccccc3)CC2C1 (some centres undefined)
ED50 (Mus musculus): > 3 mg/kg
LAD (Rattus norvegicus [2]): 1 mg/kg

Ki (D(2) dopamine receptor): 250 nM
Ki (D(1A) dopamine receptor): > 10000 nM
SMILES: COc1cc(N)c(Cl)cc1C(=O)NC1CCN2CC(C)(c3ccccc3)CC2C1 (centres undefined)
ED50 (Mus musculus): 0.078 mg/kg
ED50 (Rattus norvegicus [3]): 0.02 mg/kg
ED50 (Rattus norvegicus [4]): 3.4 mg/kg
LAD (Rattus norvegicus [1]): inactive

SMILES: COc1cc(N)c(Cl)cc1C(=O)NC1CCN2CC(c3ccc(F)cc3)CC2C1 (centres undefined)
ED50 (Mus musculus): 0.015 mg/kg

SMILES: CCN(CC)CCNC(=O)c1cc(Cl)c(N)cc1OC [METOCLOPRAMIDE]
ED50 (Mus musculus): 0.75 mg/kg
LAD (Rattus norvegicus [2]): 1 mg/kg

SMILES: COc1cc(N)c(Cl)cc1C(=O)NC1CCN(Cc2ccccc2)CC1 [CLEBOPRIDE]
ED50 (Mus musculus): 0.037 mg/kg
LAD (Rattus norvegicus [2]): 1 mg/kg
